# Test results as given in ChEMBL document CHEMBL1201862, “PubChem BioAssay data set” (2004).
# The source made the active and inactive calls.
# Key:
# Beta-galactosidase = Beta-galactosidase (Escherichia coli, UniProt Q8VNN2); experiment: Dose response counterscreen for EBI2 assay utilizing the enzyme, b-galactosidase.; format: functional
# [1] = inhibitors of firefly luciferase expression or activity, dose response, H4 neuroglioma cells, luminescence (AID 1990); format: functional, cell-based
# [2] = target: Disintegrin and metalloproteinase domain-containing protein 17 (Homo sapiens, UniProt P78536); experiment: exosite inhibitors of ADAM17, dose response, biochemical (AID 743260)
# [3] = Luminescence Cell-Based Dose Response HTS to Identify Inhibitors of 5'UTR Stem-Loop Driven Prion Protein mRNA Translation in H4 Neuroglioblastoma Cells. [Related pubchem assays: 1827 (Project Summary), 1813 (Primary HTS)]; format: functional
# [4] = ADAM10 protease inhibitors, dose response, selectivity assay for ADAM17 exosite inhibitor project, biochemical, FRET peptide substrate, recombinant human ADAM10 (AID 743259);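 further: ADAM10 enzyme cleaving a FRET peptide substrate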
# [5] = inhibitors of SNCA 5'UTR-driven reporter translation, confirmation, H4 neuroglioma cells, luminescence (AID 1988); format: functional, cell-based
# [6] = ZM109 Env clade C HIV-1 fusion inhibitors, dose response, HeLa effector, CEM target cells, luciferase, cherry-pick (AID 652058); format: functional, cell-based
# [7] = NIH-3T3 fibroblast cytotoxicity, dose response, cytotoxicity control, cell-based, fluorescence, Alamar Blue, secondary assay (AID 2327); format: functional;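 further: NIH-3T3 mouse fibroblasts cultured with fluconazole at 8 µg/mL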
# [8] = off-target signal loss in HeLa-CEM21 co-culture – HeLa F-luc CTL cells, cherry-picked, counter-screen for HIV-1 Env fusion inhibitor project, dose response (AID 652040); format: functional, cell-based;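 further: potency for signal decrease marking cytotoxic or nonspecific inhibition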
# Cytochrome P450 2C19 = Cytochrome P450 2C19 (Homo sapiens, UniProt P33261); experiment: Cytochrome panel assay with activity outcomes. Panel member name: p450-cyp2c19 Compounds with AC50 equal or less than 10 uM are considered active; format: functional
# [9] = CEM21 lymphoblast cell cytotoxicity, dose response, cytotoxicity control for viral fusion inhibitor project, CellTiter-Glo luminescence, cherry-picked (AID 652042); format: functional, cell-based;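 further: potency for signal decrease meaning cytotoxicity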
# [10] = C. albicans growth with fluconazole, confirmation, fluorescence, retest (AID 2467); format: functional, cell-based
# [11] = inhibitors of intracellular T. cruzi replication, confirmation, NIH3T3 host cells, beta-gal luminescence (AID 2044); format: functional, cell-based;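 further: intracellular parasites grown in NIH/3T3 mouse fibroblasts as host cells; luminescent beta-galactosidase reporter signal from transgenic T. cruzi replicating inside host cells; inhibitors lower the luminescence signal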
# [12] = cytotoxicity toward NIH3T3 fibroblasts, dose response, counter-screen, cell-based, ATP luminescence, mouse fibroblasts (AID 2010); format: functional;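 further: cells exposed to compound for about 90 hours before reading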
# [13] = inhibitors of HIV Env-driven cell fusion, dose response, cherry-pick (AID 652057); format: functional, cell-based
# [14] = inhibitors of clade B AD8 Env fusion, dose response, cell-based, cherry-pick (AID 652062); format: functional;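 further: luciferase signal from cell-cell fusion driven by HIV-1 clade B AD8 Env; potency is for inhibitors of fusion seen as a drop in luminescence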
# cells [15] = experiment: cells
# [16] = LGR2 antagonists, dose response, cell-based, HEK293, CRE-luciferase reporter, cherry pick (AID 743342); format: functional
# [17] = MC4R antagonists, dose response, counter-screen for LGR2 antagonist project, cell-based, plate reader, cherry pick (AID 743444); format: functional;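 further: transfected HEK 293 cells stimulated with alpha-MSH peptide; potency of inhibitors of the alpha-MSH evoked signal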
# [18] = target: Nuclear receptor subfamily 0 group B member 1 (Homo sapiens, UniProt P51843); format: functional, cell-based;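 further: HEK293T cells transfected with SF-1 and DAX-1 plus StAR promoter luciferase reporter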
# cells [19] = format: functional, cell-based
# [20] = target: Fructose-bisphosphate aldolase (Mycobacterium tuberculosis, UniProt P9WQA3); experiment: Fluorescence-based biochemical high throughput dose response assay for inhibitors of the fructose-bisphosphate aldolase (FBA) of M. tuberculosis.; format: functional
# [21] = miR-122 activators in hepatoma reporter cells, dose response, cell-based, Huh7 psiCHECK-miR122, Renilla luciferase, cherry-picked (AID 651956); format: functional;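 further: huh7 hepatoma cells stably carrying a psiCHECK-2 miR-122 sensor plasmid; renilla luciferase signal reporting endogenous miR-122 activity after 48 h compound exposure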
# [22] = HEK293T cytotoxicity, dose response, cytotoxicity control for miR-122 modulator project, cell-based, inhibitor set, cherry-pick, set 2 (AID 720697); format: functional
# [23] = HeLa cell cytotoxicity, dose response, cytotoxicity control, 24 h, plate reader, dry powder (AID 686928); format: functional, cell-based
# [24] = cytotoxicity in HEK-293T cells, dose response, cytotoxicity control for TCR NF-kB inhibitor project, luminescence, T-cell screen hits (AID 489026); format: functional, cell-based;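 further: cells exposed to compound about 14 hours before the viability readout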
# HEK293 [25] = experiment: cells; conditions: Homo sapiens
# [26] = target: T1, Replicative DNA helicase DnaB (Mycobacterium tuberculosis, UniProt P9WMR3); experiment: DnaB intein splicing inhibitors, dose response, biochemical, cell-free fluorescence (AID 449749); format: functional
# T1 sequence (P9WMR3 whole entry): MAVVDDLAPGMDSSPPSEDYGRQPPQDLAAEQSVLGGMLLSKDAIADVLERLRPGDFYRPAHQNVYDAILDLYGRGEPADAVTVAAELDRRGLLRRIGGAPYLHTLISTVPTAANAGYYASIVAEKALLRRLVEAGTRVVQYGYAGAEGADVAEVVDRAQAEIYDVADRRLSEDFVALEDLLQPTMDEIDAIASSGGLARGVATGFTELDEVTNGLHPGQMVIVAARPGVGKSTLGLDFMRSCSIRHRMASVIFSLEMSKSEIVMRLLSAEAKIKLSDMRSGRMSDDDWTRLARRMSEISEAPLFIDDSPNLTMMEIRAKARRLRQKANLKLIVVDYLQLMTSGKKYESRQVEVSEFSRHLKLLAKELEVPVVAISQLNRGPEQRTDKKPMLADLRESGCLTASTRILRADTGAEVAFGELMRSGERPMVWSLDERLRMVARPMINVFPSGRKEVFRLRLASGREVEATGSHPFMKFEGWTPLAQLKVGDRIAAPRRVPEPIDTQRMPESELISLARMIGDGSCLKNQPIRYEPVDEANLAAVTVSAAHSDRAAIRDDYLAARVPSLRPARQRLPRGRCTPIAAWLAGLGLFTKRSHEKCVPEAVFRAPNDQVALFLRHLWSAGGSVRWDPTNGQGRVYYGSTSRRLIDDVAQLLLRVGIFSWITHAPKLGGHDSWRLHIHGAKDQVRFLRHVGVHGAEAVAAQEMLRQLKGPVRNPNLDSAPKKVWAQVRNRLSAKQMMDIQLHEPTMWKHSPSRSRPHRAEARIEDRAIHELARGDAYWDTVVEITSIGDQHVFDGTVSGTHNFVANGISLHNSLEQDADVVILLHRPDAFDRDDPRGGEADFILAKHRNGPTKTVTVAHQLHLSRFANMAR
# HEK293 [27] = experiment: cells; conditions: Homo sapiens; remark: listed apart in the source
# [28] = human group III sPLA2 inhibitors, dose response, biochemical, QFRET, IC50 (AID 743457);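 further: green fluorescence rise as the enzyme cleaves BODIPY PC-A2 in liposomes; potency for inhibition of the enzyme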
# [29] = Luminescence Cell-Based Dose Response HTS to Identify Activators of Luciferase Translation or Activity in H4 […] Cells. [Related pubchem assays: 1829 (Project Summary), 1814 (Primary HTS)]; format: functional
# [30] = Luminescence Cell-Based Dose Confirmation HTS to Identify Activators of 5'UTR Stem-Loop Driven Alpha-Synuclein mRNA Translation in H4 Neuroglioblastoma Cells. [Related pubchem assays: 1829 (Project Summary), 1814 (Primary HTS)]; format: functional
# [31] = target: G-protein coupled receptor 55 (Homo sapiens, UniProt Q9Y2T6); experiment: GPR55 antagonists blocking LPI-driven arrestin recruitment, primary screen, imaging, U2OS, beta-arrestin-GFP, LPI agonist (AID 2013); format: functional;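 further: antagonist potency measured as reduced agonist-driven arrestin aggregation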
# Protein RecA = target: T2, Protein RecA (Mycobacterium tuberculosis, UniProt P9WHJ3); experiment: Fluorescence Cell-Free Homogeneous Dose Retest to Identify Inhibitors of RecA-Intein Splicing Activity. [Related pubchem assays (depositor defined):AID2097, AID2223, AID489010, AID492950]; format: functional
# T2 sequence (P9WHJ3 whole entry): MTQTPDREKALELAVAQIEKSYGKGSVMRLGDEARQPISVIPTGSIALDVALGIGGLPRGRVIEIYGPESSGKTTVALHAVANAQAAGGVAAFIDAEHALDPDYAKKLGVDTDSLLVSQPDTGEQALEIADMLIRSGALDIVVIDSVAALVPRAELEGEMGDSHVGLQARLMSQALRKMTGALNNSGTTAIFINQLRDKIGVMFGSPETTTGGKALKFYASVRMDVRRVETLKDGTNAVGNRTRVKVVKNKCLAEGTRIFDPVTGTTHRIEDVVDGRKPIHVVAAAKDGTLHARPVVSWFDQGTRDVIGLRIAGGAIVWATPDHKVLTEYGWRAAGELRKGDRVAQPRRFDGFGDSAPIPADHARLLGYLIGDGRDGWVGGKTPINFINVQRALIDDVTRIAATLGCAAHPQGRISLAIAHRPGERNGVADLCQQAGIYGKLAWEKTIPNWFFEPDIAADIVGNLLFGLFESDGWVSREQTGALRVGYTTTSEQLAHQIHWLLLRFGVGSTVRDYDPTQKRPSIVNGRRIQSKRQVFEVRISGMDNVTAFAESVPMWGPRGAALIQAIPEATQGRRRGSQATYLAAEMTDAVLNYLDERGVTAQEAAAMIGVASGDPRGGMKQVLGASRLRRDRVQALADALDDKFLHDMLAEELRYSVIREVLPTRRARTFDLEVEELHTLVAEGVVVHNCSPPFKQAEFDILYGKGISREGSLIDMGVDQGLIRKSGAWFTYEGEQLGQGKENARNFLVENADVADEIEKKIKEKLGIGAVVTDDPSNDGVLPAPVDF
# H4 = experiment: Luminescence Cell-Based Dose Response HTS to Identify Activators of 5'UTR Stem-Loop Driven Prion Protein mRNA Translation in H4 Neuroglioblastoma Cells. [Related pubchem assays: 1829 (Project Summary), 1814 (Primary HTS)]; format: functional; conditions: Homo sapiens
# [32] = A549 cell cytotoxicity, dose response, cytotoxicity control, plate reader, cherry-pick, antagonist series (AID 743412); format: functional, cell-based
# [33] = HEK293 cell cytotoxicity, dose response, cytotoxicity control, plate reader, cherry-picked samples (AID 743446); format: functional, cell-based
# [34] = HepG2 cell cytotoxicity, dose response, cytotoxicity control, plate reader, cherry-pick, antagonist series (AID 743416); format: functional, cell-based
# Chain of Beta-galactosidase (Q8VNN2 whole entry): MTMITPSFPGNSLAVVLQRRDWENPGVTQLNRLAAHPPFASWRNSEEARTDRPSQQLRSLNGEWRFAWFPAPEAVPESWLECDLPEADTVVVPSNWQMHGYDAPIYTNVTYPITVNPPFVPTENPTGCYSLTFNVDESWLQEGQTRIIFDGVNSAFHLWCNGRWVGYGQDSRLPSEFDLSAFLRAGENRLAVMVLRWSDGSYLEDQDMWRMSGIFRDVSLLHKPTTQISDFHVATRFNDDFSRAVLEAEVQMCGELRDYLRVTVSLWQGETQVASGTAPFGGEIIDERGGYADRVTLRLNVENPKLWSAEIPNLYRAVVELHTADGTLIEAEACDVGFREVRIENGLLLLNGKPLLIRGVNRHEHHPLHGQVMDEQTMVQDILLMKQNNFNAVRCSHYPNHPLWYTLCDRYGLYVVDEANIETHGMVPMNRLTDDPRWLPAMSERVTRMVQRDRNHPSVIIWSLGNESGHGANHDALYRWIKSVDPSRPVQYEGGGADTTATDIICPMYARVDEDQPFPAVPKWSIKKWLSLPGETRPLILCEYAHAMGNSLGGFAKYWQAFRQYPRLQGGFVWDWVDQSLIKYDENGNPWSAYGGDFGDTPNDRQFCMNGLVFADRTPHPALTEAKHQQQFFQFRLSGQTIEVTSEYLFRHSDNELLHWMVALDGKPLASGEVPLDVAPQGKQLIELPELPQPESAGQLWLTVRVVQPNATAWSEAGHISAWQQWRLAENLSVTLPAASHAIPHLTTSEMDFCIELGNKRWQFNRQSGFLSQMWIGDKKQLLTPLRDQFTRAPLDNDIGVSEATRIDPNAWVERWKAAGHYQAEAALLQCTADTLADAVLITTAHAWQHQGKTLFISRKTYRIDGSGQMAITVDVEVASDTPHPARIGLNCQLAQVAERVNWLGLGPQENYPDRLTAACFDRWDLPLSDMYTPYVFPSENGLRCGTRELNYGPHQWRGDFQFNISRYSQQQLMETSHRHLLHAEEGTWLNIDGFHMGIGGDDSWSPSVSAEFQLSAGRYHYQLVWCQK
# Chain of Fructose-bisphosphate aldolase (P9WQA3 whole entry): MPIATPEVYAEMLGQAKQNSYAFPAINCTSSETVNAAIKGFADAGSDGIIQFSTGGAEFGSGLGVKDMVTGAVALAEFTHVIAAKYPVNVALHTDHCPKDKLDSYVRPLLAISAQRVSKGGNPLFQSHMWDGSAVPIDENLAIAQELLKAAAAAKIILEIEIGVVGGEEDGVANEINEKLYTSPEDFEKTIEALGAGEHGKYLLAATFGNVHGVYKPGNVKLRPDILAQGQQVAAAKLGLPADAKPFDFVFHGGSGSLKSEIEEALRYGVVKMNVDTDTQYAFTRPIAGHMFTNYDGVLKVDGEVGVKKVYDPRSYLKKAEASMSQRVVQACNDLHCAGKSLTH
# Chain of Nuclear receptor subfamily 0 group B member 1 (P51843 whole entry): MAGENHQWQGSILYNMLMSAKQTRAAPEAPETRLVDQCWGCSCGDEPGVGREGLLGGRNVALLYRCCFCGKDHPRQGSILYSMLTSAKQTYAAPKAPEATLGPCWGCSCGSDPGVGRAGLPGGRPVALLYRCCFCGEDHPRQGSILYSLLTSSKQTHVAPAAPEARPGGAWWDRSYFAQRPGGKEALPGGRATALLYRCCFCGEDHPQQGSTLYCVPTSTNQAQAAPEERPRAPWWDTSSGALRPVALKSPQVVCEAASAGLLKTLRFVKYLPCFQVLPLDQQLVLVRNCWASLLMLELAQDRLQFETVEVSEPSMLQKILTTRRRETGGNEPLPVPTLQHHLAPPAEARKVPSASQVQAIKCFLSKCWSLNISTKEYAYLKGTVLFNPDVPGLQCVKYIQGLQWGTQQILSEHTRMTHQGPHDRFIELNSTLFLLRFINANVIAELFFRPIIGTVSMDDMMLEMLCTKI
# Chain of Cytochrome P450 2C19 (P33261 whole entry, the tested form may be a part): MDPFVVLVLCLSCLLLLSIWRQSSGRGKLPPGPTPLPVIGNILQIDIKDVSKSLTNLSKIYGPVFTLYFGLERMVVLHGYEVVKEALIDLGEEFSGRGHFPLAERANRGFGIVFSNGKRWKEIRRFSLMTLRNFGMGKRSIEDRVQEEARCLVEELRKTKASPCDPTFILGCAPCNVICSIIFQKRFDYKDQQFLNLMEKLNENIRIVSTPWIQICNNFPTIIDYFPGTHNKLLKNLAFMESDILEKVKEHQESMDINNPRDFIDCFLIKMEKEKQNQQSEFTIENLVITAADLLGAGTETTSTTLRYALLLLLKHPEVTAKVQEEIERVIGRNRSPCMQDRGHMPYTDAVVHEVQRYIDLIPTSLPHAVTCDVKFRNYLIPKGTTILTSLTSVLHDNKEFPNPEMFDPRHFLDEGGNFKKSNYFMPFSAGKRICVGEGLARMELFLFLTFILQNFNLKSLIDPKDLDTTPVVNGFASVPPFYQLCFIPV
# Chain of G-protein coupled receptor 55 (Q9Y2T6 whole entry): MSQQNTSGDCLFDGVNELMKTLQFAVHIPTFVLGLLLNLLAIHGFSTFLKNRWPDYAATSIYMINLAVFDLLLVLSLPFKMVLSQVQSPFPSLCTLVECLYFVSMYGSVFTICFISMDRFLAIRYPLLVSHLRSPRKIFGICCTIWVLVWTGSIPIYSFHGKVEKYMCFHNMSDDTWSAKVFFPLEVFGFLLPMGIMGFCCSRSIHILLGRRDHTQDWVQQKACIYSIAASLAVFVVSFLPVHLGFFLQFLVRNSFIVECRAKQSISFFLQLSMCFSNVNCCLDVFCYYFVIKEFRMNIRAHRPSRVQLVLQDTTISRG
# Chain of Disintegrin and metalloproteinase domain-containing protein 17 (P78536 whole entry, the tested form may be a part): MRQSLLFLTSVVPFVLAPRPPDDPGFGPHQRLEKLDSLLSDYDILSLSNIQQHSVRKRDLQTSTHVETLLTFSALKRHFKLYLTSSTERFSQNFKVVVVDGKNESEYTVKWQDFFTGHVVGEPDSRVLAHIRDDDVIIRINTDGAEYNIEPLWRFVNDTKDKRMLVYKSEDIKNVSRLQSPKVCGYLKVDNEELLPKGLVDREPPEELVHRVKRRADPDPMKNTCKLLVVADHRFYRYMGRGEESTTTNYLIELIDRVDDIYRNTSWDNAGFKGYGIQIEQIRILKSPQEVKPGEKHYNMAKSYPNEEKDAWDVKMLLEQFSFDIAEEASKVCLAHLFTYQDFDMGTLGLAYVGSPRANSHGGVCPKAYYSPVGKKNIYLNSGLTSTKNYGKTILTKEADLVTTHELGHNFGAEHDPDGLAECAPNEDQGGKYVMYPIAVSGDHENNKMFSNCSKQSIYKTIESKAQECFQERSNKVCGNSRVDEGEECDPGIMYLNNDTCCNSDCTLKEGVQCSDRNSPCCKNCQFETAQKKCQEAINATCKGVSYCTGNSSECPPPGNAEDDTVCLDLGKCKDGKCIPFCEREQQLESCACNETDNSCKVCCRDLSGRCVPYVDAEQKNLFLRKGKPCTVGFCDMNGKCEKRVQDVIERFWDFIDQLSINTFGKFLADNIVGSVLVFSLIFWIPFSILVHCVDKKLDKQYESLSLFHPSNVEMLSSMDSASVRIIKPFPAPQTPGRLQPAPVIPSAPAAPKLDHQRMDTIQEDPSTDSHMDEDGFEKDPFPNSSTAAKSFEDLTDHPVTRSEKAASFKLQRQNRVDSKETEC
compound,measurement,setting,value
CCc1ccc2oc(C(=O)N3CCN(c4ccc(OC)cc4)CC3)cc(=O)c2c1,IC50,Beta-galactosidase,> 80 µM (inactive)
CCNC(=S)N/N=C/c1cn(Cc2ccccc2F)c2ccccc12,EC50,[1],15.9 µM (active)
same,IC50,[2],> 69.5 µM (inactive)
same,EC50,[3],24.4 µM (active)
same,IC50,[4],> 69.5 µM (inactive)
same,EC50,[5],19.7 µM (active)
CC[n+]1c(C=CN(C)c2ccccc2)sc2ccc(Cl)cc21.[O-][Cl+3]([O-])([O-])[O-],AC50,[6],39.8 µM (active)
same,EC50,[7],> 150 µM (inactive)
same,AC50,[8],13 µM (active)
same,AC50,Cytochrome P450 2C19,inconclusive
same,AC50,[9],59.3 µM (active)
same,EC50,[10],3.29 µM (active)
same,EC50,[11],< 0.1 µM (active)
same,EC50,[12],5.94 µM (active)
same,AC50,[13],26.3 µM (active)
same,AC50,[14],8.92 µM (active)
same,EC50,cells [15],0.146 µM (active)
C[C@H](CO)N1C[C@H](C)[C@H](CN(C)C(=O)Nc2cccc3ccccc23)OCCCC[C@H](C)Oc2ccc(NC(=O)NC3CCCCC3)cc2C1=O,AC50,[16],4.13 µM (active)
same,AC50,[17],45.6 µM (active)
C/C(=N/NC(=O)c1ccoc1C)c1cccc(NC(=O)C(F)(F)F)c1,IC50,[18],> 67.5 µM (inactive)
same,IC50,cells [19],> 67.5 µM (inactive)
COCCCNC(=S)NCCCNc1nc2cc3c(cc2cc1C#N)OCO3,IC50,[20],1.2 µM (active)
CN(C)c1ccc(/C=N\NC(=O)CC#N)cc1,IC50,[20],> 1.11 µM (active)
CC(=O)N(C)C[C@H]1Oc2cc(/C=C/c3ccccc3)ccc2S(=O)(=O)N([C@@H](C)CO)C[C@H]1C,AC50,[21],26.9 µM (active)
same,AC50,[22],0.451 µM (active)
Cc1ccc2cc3c(NC(=O)c4ccco4)nn(C)c3nc2c1,AC50,[23],179 µM (active)
same,AC50,[23]; 24 h,121 µM (active)
C[C@@H]1CN([C@@H](C)CO)C(=O)Cc2cc(NS(=O)(=O)c3cccs3)ccc2O[C@H]1CN(C)Cc1ccc(Cl)c(Cl)c1,AC50,[6],< 0.26 µM (active)
same,AC50,[13],9.27 µM (active)
same,AC50,[14],0.486 µM (active)
Cc1cccc(N2CCN(C(=O)c3ccc4[nH]c(C)c(C)c4c3)CC2)c1C,IC50,Beta-galactosidase,> 80 µM (inactive)
same,IC50,[24],> 80 µM (inactive)
CCOC(=O)c1c(CSC(=N)N)n(-c2ccccc2)c2cc(Br)c(OC(C)=O)cc12,EC50,HEK293 [25],> 59.6 µM (inactive)
same,AC50,[26],5.9 µM (active)
same,EC50,HEK293 [27],> 59.6 µM (inactive)
same,IC50,[28],> 122 µM (inactive)
same,EC50,[29],9.69 µM (active)
same,EC50,[30],> 120 µM (not active)
same,IC50,[31],3.23 µM (active)
same,EC50,Protein RecA,9.76 µM (active)
same,EC50,H4,> 120 µM (not active)
Cn1cc(Cl)c(C(=O)NN=C(S)Nc2cccc(Cl)c2)n1,IC50,[28],> 122 µM (inactive)
Cc1ccc2nc(NC(=O)COC(=O)c3cccnc3)sc2c1,IC50,[18],> 67.5 µM (inactive)
same,IC50,cells [19],> 67.5 µM (inactive)
C[C@@H]1CN([C@@H](C)CO)C(=O)c2cc(NC(=O)c3ccncc3)ccc2O[C@@H](C)CCCCO[C@H]1CN(C)C(=O)Nc1cccc2ccccc12,AC50,[32],14.3 µM (active)
same,AC50,[16],2.91 µM (active)
same,AC50,[33],17.1 µM (active)
same,AC50,[17],9.74 µM (active)
same,AC50,[34],17.1 µM (active)
